# System: murine B16 melanoma
# Experiment: Antitumor effect in murine B16 melanoma model, tumor size and tumor weight (Example 2)
# Assay type: in vivo, C57BL/6 mice
# Details: Day 12
# Method: As per aseptic tissue culture procedures, one vial of B16 melanoma cells (supplied by Cell Culture Center of CAMS) was thawed and centrifuged at 1000 rpm, 20-25° C. for 5 minutes. The cell pellets were suspended in 0.1-0.5 mL normal saline (NS) and subcutaneously injected into the right axilla of each mouse (approximately 1×10^6 cells/mouse). When the tumor diameter was 1 cm approximately (measured by vernier caliper), the animals were euthanized with CO2 asphyxiation and the tumor was excised. Tumor cells were suspended in normal saline as previously described and the cell adaptation cycle was repeated once.
# On Day 0, 1×10^6 B16 cells in a volume of 0.1 mL normal saline were subcutaneously injected into the right axillary area of the mouse. The day of tumor inoculation was defined as Day 0.
# Dosing was initiated on Day 1.
# Observations were recorded daily for mortality and moribundity. […] The tumors were excised, separated, and weighed.
# Tumor volume was calculated using the following formula: Tumor Volume=Length×Width×Width/2 Tumor volume inhibition rate (IR) was calculated according to the formula: IR(TV)=(TVvehicle−TVdrug treated)/TVvehicle×100% TV is the tumor volume on the day of measurement.
# The antitumor effect of the test article was also evaluated by tumor weight. The tumor weight of each mouse was recorded after euthanasia, and the inhibition rate of tumor weight was calculated according to the formula: IR(TW)=(Tumor weightvehicle−Tumor weightdrug treated)/Tumor weightvehicle×100%
smiles,measurement,setting,value
"N[C@H](CCC(=O)N[C@@H](Cc1c[nH]c2ccccc12)C(=O)O)C(=O)O [SCV-07, γ-D-glutamyl-L-tryptophan]",Tumor measurements L,"mouse F2, SCV-07 5.0 mg/kg sc",1.0 cm
same,Tumor measurements W,"mouse F2, SCV-07 5.0 mg/kg sc",1.0 cm
same,Tumor volumes,"mouse F2, SCV-07 5.0 mg/kg sc",0.50 cm^3
same,Tumor measurements L,"mouse F3, SCV-07 0.01 mg/kg sc",0.1 cm
same,Tumor measurements W,"mouse F3, SCV-07 0.01 mg/kg sc",0.1 cm
same,Tumor volumes,"mouse F3, SCV-07 0.01 mg/kg sc",5E−04 cm^3
same,Tumor measurements L,"mouse F3, SCV-07 0.1 mg/kg sc",1.1 cm
same,Tumor measurements W,"mouse F3, SCV-07 0.1 mg/kg sc",1.0 cm
same,Tumor volumes,"mouse F3, SCV-07 0.1 mg/kg sc",0.55 cm^3
same,Tumor measurements L,"mouse F3, SCV-07 1.0 mg/kg sc",1.0 cm
same,Tumor measurements W,"mouse F3, SCV-07 1.0 mg/kg sc",1.0 cm
same,Tumor volumes,"mouse F3, SCV-07 1.0 mg/kg sc",0.50 cm^3
same,Tumor measurements L,"mouse F3, SCV-07 5.0 mg/kg sc",0.7 cm
same,Tumor measurements W,"mouse F3, SCV-07 5.0 mg/kg sc",0.7 cm
same,Tumor volumes,"mouse F3, SCV-07 5.0 mg/kg sc",0.17 cm^3
same,Tumor measurements L,"mouse F4, SCV-07 0.01 mg/kg sc",1.0 cm
same,Tumor measurements W,"mouse F4, SCV-07 0.01 mg/kg sc",1.0 cm
same,Tumor volumes,"mouse F4, SCV-07 0.01 mg/kg sc",0.50 cm^3
same,Tumor measurements L,"mouse F4, SCV-07 0.1 mg/kg sc",1.1 cm
same,Tumor measurements W,"mouse F4, SCV-07 0.1 mg/kg sc",1.1 cm
same,Tumor volumes,"mouse F4, SCV-07 0.1 mg/kg sc",0.67 cm^3
same,Tumor measurements L,"mouse F4, SCV-07 1.0 mg/kg sc",0.1 cm
same,Tumor measurements W,"mouse F4, SCV-07 1.0 mg/kg sc",0.1 cm
same,Tumor volumes,"mouse F4, SCV-07 1.0 mg/kg sc",0.00 cm^3
same,Tumor measurements L,"mouse F4, SCV-07 5.0 mg/kg sc",0.8 cm
same,Tumor measurements W,"mouse F4, SCV-07 5.0 mg/kg sc",0.8 cm
same,Tumor volumes,"mouse F4, SCV-07 5.0 mg/kg sc",0.26 cm^3
same,Tumor measurements L,"mouse F5, SCV-07 0.01 mg/kg sc",1.0 cm
same,Tumor measurements W,"mouse F5, SCV-07 0.01 mg/kg sc",0.9 cm
same,Tumor volumes,"mouse F5, SCV-07 0.01 mg/kg sc",0.41 cm^3
same,Tumor measurements L,"mouse F5, SCV-07 0.1 mg/kg sc",0.3 cm
same,Tumor measurements W,"mouse F5, SCV-07 0.1 mg/kg sc",0.3 cm
same,Tumor volumes,"mouse F5, SCV-07 0.1 mg/kg sc",0.01 cm^3
same,Tumor measurements L,"mouse F5, SCV-07 1.0 mg/kg sc",1.0 cm
same,Tumor measurements W,"mouse F5, SCV-07 1.0 mg/kg sc",1.0 cm
same,Tumor volumes,"mouse F5, SCV-07 1.0 mg/kg sc",0.50 cm^3
same,Tumor measurements L,"mouse F5, SCV-07 5.0 mg/kg sc",1.0 cm
same,Tumor measurements W,"mouse F5, SCV-07 5.0 mg/kg sc",1.0 cm
same,Tumor volumes,"mouse F5, SCV-07 5.0 mg/kg sc",0.50 cm^3
same,Tumor measurements L,"mouse M1, SCV-07 0.01 mg/kg sc",1.1 cm
same,Tumor measurements W,"mouse M1, SCV-07 0.01 mg/kg sc",1.1 cm
same,Tumor volumes,"mouse M1, SCV-07 0.01 mg/kg sc",0.67 cm^3
same,Tumor measurements L,"mouse M1, SCV-07 0.1 mg/kg sc",1.1 cm
same,Tumor measurements W,"mouse M1, SCV-07 0.1 mg/kg sc",1.1 cm
same,Tumor volumes,"mouse M1, SCV-07 0.1 mg/kg sc",0.67 cm^3
same,Tumor measurements L,"mouse M1, SCV-07 1.0 mg/kg sc",0.8 cm
same,Tumor measurements W,"mouse M1, SCV-07 1.0 mg/kg sc",0.7 cm
same,Tumor volumes,"mouse M1, SCV-07 1.0 mg/kg sc",0.20 cm^3
same,Tumor measurements L,"mouse M1, SCV-07 5.0 mg/kg sc",0.7 cm
same,Tumor measurements W,"mouse M1, SCV-07 5.0 mg/kg sc",0.7 cm
same,Tumor volumes,"mouse M1, SCV-07 5.0 mg/kg sc",0.17 cm^3
same,Tumor measurements L,"mouse M2, SCV-07 0.01 mg/kg sc",0.9 cm
same,Tumor measurements W,"mouse M2, SCV-07 0.01 mg/kg sc",0.9 cm
same,Tumor volumes,"mouse M2, SCV-07 0.01 mg/kg sc",0.36 cm^3
same,Tumor measurements L,"mouse M2, SCV-07 0.1 mg/kg sc",0.9 cm
same,Tumor measurements W,"mouse M2, SCV-07 0.1 mg/kg sc",0.9 cm
same,Tumor volumes,"mouse M2, SCV-07 0.1 mg/kg sc",0.36 cm^3
same,Tumor measurements L,"mouse M2, SCV-07 1.0 mg/kg sc",1.0 cm
same,Tumor measurements W,"mouse M2, SCV-07 1.0 mg/kg sc",1.0 cm
same,Tumor volumes,"mouse M2, SCV-07 1.0 mg/kg sc",0.50 cm^3
same,Tumor measurements L,"mouse M2, SCV-07 5.0 mg/kg sc",0.9 cm
same,Tumor measurements W,"mouse M2, SCV-07 5.0 mg/kg sc",0.9 cm
same,Tumor volumes,"mouse M2, SCV-07 5.0 mg/kg sc",0.36 cm^3
same,Tumor measurements L,"mouse M3, SCV-07 0.01 mg/kg sc",1.1 cm
same,Tumor measurements W,"mouse M3, SCV-07 0.01 mg/kg sc",0.9 cm
same,Tumor volumes,"mouse M3, SCV-07 0.01 mg/kg sc",0.45 cm^3
same,Tumor measurements L,"mouse M3, SCV-07 0.1 mg/kg sc",1.1 cm
same,Tumor measurements W,"mouse M3, SCV-07 0.1 mg/kg sc",1.1 cm
